Results from patent US12304905B2, “Pharmaceutical salts of benzothiazol compounds, polymorphs and methods for preparation thereof” (priority 2019, dated 2025).

Experiments:
Format in all cases: physicochemical
[1] = Polymorph screening study of mono-hydrochloride (slurry, heating-cooling, slow evaporation, anti-solvent); conditions: slow evaporation and anti-solvent methods, starting from Pattern I
Experimental: About 50 mg of (1S,2S)-2-fluoro-N-(6-(4-methylpyridin-3-yl)benzo[d]thiazol-2-yl)cyclopropane-1-carboxamide mono-hydrochloride was suspended into 1.0 mL selected pure or binary solvents in 2.0 mL glass vials. The suspensions were placed on the thermo-mixer with the speed of 700 r/m in at 25° C. and 50° C. After 4 days, slurries and suspensions were centrifuged (8,000 r/m in, 5 mins) and residual solids were dried in the vacuum oven at 35° C. for 4 hrs.
About 50 mg of (1S,2S)-2-fluoro-N-(6-(4-methylpyridin-3-yl)benzo[d]thiazol-2-yl)cyclopropane-1-carboxamide mono-hydrochloride was suspended into 1.0 mL selected pure or binary solvents in 2.0 mL glass vials at 50° C. stirring with the speed of 500 r/min. Then the suspensions were filtered through 0.45 μm filters into clean 2.0 mL glass vials and placed on the hot-plate stirring with 500 r/m in at 50° C. After stirring at 50° C. for 1.5 hrs, the system was cooled to 25° C. After stirring at 25° C. for 16 hrs, some solids came out from MeOH, EtOH/H2O (5/1, v/v) and acetone/H2O (5/1, v/v) systems, while very few solids came out from EtOH system. Then MeOH, EtOH/H2O (5/1, v/v) and acetone/H2O (5/1, v/v) systems were centrifuged at 10000 r/min for 5 mins and residual solids were dried in the vacuum oven at 35° C. for 3 hrs. Obtained dry solids were then characterized by XRPD. […]

[2] = Solubility tests of mono- and di-hydrochloride in bio-relevant media by HPLC; conditions: for solubility at 17 h: 37 °C, thermodynamic from solid; for pH: after shaking 17 hrs at 37° C.
Experimental: Solubilities of mono-hydrochloride and di-hydrochloride salt forms in biorelevant media were tested at 37° C. Details of procedures were listed as below: About 15 mg obtained salts were weighed in 2 mL vials, respectively. Then 1.0 mL bio-relevant media (SGF, FaSSIF and FeSSIF) were added into the vials. All the vials were placed on the thermo-mixer and kept at 37° C. (700 r/min). After shaking at 37° C. for 17 hrs, clear solutions obtained by centrifugation were analyzed by HPLC after being diluted by ACN/water (1v/1v) for 10-50 times. And pH value of all systems were measured.

[3] = Solubility of mono-hydrochloride in solvents; conditions: in MeOH, DMF, DMSO and water
[4] = Dry grinding and wet granulation, physical stability in the milling process
Experimental: Dry grinding and wet granulation were carried out to test physical stability of (1S,2S)-2-fluoro-N-(6-(4-methylpyridin-3-yl)benzo[d]thiazol-2-yl)cyclopropane-1-carboxamide mono-hydrochloride in the milling process.
(§1) For dry grinding experiment, about 50 mg of (1S,2S)-2-fluoro-N-(6-(4-methylpyridin-3-yl)benzo[d]thiazol-2-yl)cyclopropane-1-carboxamide mono-hydrochloride was added into mortar and grinded by pestle for about 5 mins. Residual solids were then characterized by XRPD.
as §1, with “wet granulation” for “dry grinding”, “and then several drops of solvent EtOH were added until the solids were fully wetted. Wet solids were” for “and”, “mins manually and residual” for “mins. Residual”

XRPD pattern in polymorph screening [1]: No new XRPD pattern was found | solubility at 17 h ([2]; pH 1.88, simulated gastric fluid): > 13900 µg/mL | solubility at 17 h ([2]; pH 5.07, fessif): 130 µg/mL | solubility at 17 h ([2]; pH 6.62, fassif): 7840 µg/mL | pH ([2]; FaSSIF (pH = 6.62)): 2.01 | pH ([2]; FeSSIF (pH = 5.07)): 3.83 | pH ([2]; SGF (pH = 1.88)): 1.89 | solubility [3]: relatively high solubility | crystallinity of residual solids (XRPD) ([4]; after dry grinding): decreased | crystalline form (XRPD) ([4]; after dry grinding or wet granulation process): not changed
SMILES: Cc1ccncc1-c1ccc2nc(NC(=O)[C@@H]3C[C@@H]3F)sc2c1.Cl [Mono-hydrochloride, (1S,2S)-2-fluoro-N-(6-(4-methylpyridin-3-yl)benzo[d]thiazol-2-yl)cyclopropane-1-carboxamide mono-hydrochloride]
